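The compound was tested at five concentrations on cells cultured in 96-well plates, with a 48-hour exposure period. GI50 is the concentration that inhibits growth by half.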 The source made the active and inactive calls. No stated cut-off is given here; in the data, active = GI50 up to about 1.1 µM and inactive = higher.
Columns and labels:
Assay in all cases: growth of human tumour cells (NCI), 48 h
786-0 = tested on: 786-0
A498 = tested on: A498
A549 = tested on: A549
ACHN = tested on: ACHN
BT-549 = tested on: BT-549
CAKI-1 = tested on: CAKI-1
CCRF-CEM = tested on: CCRF-CEM
EKVX = tested on: EKVX
HCC 2998 = tested on: HCC 2998
HCT-15 = tested on: HCT-15
HL-60 = tested on: HL-60
HOP-92 = tested on: HOP-92
HT-29 = tested on: HT-29
Hs-578T = tested on: Hs-578T
IGROV-1 = tested on: IGROV-1
K562 = tested on: K562
KM12 = tested on: KM12
LOX IMVI = tested on: LOX IMVI
M14 = tested on: M14
MCF7 = tested on: MCF7
MOLT-4 = tested on: MOLT-4
NCI-H226 = tested on: NCI-H226
NCI-H23 = tested on: NCI-H23
NCI-H460 = tested on: NCI-H460
NCI/ADR-RES = tested on: NCI/ADR-RES
OVCAR-3 = tested on: OVCAR-3
OVCAR-4 = tested on: OVCAR-4
OVCAR-5 = tested on: OVCAR-5
OVCAR-8 = tested on: OVCAR-8
PC-3 = tested on: PC-3
RPMI-8226 = tested on: RPMI-8226
RXF 393 = tested on: RXF 393
SF-268 = tested on: SF-268
SF-539 = tested on: SF-539
SK-MEL-28 = tested on: SK-MEL-28
SK-MEL-5 = tested on: SK-MEL-5
SK-OV-3 = tested on: SK-OV-3
SN12C = tested on: SN12C
SNB-19 = tested on: SNB-19
SNB-75 = tested on: SNB-75
SR = tested on: SR
SW-620 = tested on: SW-620
TK-10 = tested on: TK-10
U-251 = tested on: U-251
UACC-62 = tested on: UACC-62
UO-31 = tested on: UO-31
COLO 205 = tested on: COLO 205
HCT-116 = tested on: HCT-116
HOP-62 = tested on: HOP-62
MDA-MB-231 = tested on: MDA-MB-231
MDA-MB-435 = tested on: MDA-MB-435
MDA-N = tested on: MDA-N
Malme-3M = tested on: Malme-3M
NCI-H522 = tested on: NCI-H522
SF-295 = tested on: SF-295
UACC-257 = tested on: UACC-257
DU-145 = tested on: DU-145
SK-MEL-2 = tested on: SK-MEL-2
T47D = tested on: T47D

In the case of `Cc1cc(Br)c(N2C3=C(CC4=C2CCCC4=O)C(=O)CCC3)c(Br)c1`, the GI50 (786-0) is reported as 96.6 µM (inactive), the GI50 (A498) is reported as 94.8 µM (inactive) and the GI50 (A549) is reported as 39.8 µM (inactive). The GI50 (ACHN) was 46.8 µM (inactive), the GI50 (BT-549) was 51.3 µM (inactive) and the GI50 (CAKI-1) was > 100 µM (inactive). For the same compound, the GI50 (CCRF-CEM) was 10.3 µM (inactive), the GI50 (EKVX) was 31 µM (inactive) and the GI50 (HCC 2998) was > 100 µM (inactive). The GI50 (HCT-15) was 29.1 µM, the GI50 (HL-60) was 32.7 µM (inactive) and the GI50 (HOP-92) was 25.6 µM (inactive). For the same compound, the GI50 (HT-29) was 42.3 µM (inactive), the GI50 (Hs-578T) was > 100 µM (inactive) and the GI50 (IGROV-1) was > 100 µM (inactive). The GI50 (K562) was 13.2 µM (inactive), the GI50 (KM12) was 62.5 µM (inactive) and the GI50 (LOX IMVI) was 23.7 µM (inactive). For the same compound, the GI50 (M14) was > 100 µM (inactive), the GI50 (MCF7) was 33.3 µM (inactive) and the GI50 (MOLT-4) was 15.4 µM (inactive). The GI50 (NCI-H226) was 72.1 µM (inactive), the GI50 (NCI-H23) was 50.9 µM (inactive) and the GI50 (NCI-H460) was 31.5 µM (inactive). For the same compound, the GI50 (NCI/ADR-RES) was 32.1 µM (inactive), the GI50 (OVCAR-3) was 42.9 µM (inactive) and the GI50 (OVCAR-4) was 93.5 µM (inactive). The GI50 (OVCAR-5) was > 100 µM (inactive), the GI50 (OVCAR-8) was 44.6 µM (inactive) and the GI50 (PC-3) was 18.6 µM (inactive). For the same compound, the GI50 (RPMI-8226) was 27.4 µM (inactive), the GI50 (RXF 393) was 25.8 µM (inactive) and the GI50 (SF-268) was 75.5 µM (inactive). For the same compound, the GI50 (SF-539) was > 100 µM (inactive), the GI50 (SK-MEL-28) was > 100 µM (inactive) and the GI50 (SK-MEL-5) was 38.7 µM (inactive). The GI50 (SK-OV-3) was > 100 µM (inactive), the GI50 (SN12C) was 74.1 µM (inactive) and the GI50 (SNB-19) was > 100 µM (inactive). For the same compound, the GI50 (SNB-75) was 46.1 µM (inactive), the GI50 (SR) was 36.6 µM (inactive) and the GI50 (SW-620) was 31.6 µM (inactive). The GI50 (TK-10) was > 100 µM (inactive), the GI50 (U-251) was 32.9 µM (inactive) and the GI50 (UACC-62) was 63.2 µM (inactive). The GI50 (UO-31) was 60.5 µM (inactive).
`O=C(CN(C(=O)OC12CC3CC(CC(C3)C1)C2)C(=O)OC12CC3CC(CC(C3)C1)C2)Oc1ccc([N+](=O)[O-])cc1` was tested, and the GI50 (786-0) was > 100 µM (inactive), the GI50 (A549) was > 100 µM (inactive) and the GI50 (ACHN) was > 100 µM (inactive). For the same compound, the GI50 (BT-549) was > 100 µM (inactive), the GI50 (CAKI-1) was > 100 µM (inactive) and the GI50 (CCRF-CEM) was 30.5 µM (inactive). The GI50 (COLO 205) was > 100 µM (inactive), the GI50 (EKVX) was > 100 µM (inactive) and the GI50 (HCC 2998) was > 100 µM (inactive). The GI50 (HCT-116) was > 100 µM (inactive), the GI50 (HCT-15) was greater than 100 µM and the GI50 (HOP-62) was > 100 µM (inactive). For the same compound, the GI50 (HOP-92) was > 100 µM (inactive), the GI50 (HT-29) was > 100 µM (inactive) and the GI50 (Hs-578T) was > 100 µM (inactive). The GI50 (IGROV-1) was > 100 µM (inactive), the GI50 (K562) was 58.1 µM (inactive) and the GI50 (KM12) was > 100 µM (inactive). For the same compound, the GI50 (LOX IMVI) was > 100 µM (inactive), the GI50 (M14) was > 100 µM (inactive) and the GI50 (MCF7) was > 100 µM (inactive). The GI50 (MDA-MB-231) was 76.2 µM (inactive), the GI50 (MDA-MB-435) was 45.3 µM (inactive) and the GI50 (MDA-N) was > 100 µM (inactive). For the same compound, the GI50 (MOLT-4) was 4.2 µM (inactive), the GI50 (Malme-3M) was 75 µM (inactive) and the GI50 (NCI-H226) was > 100 µM (inactive). The GI50 (NCI-H23) was 93.8 µM (inactive), the GI50 (NCI-H460) was > 100 µM (inactive) and the GI50 (NCI-H522) was 59 µM (inactive). The GI50 (NCI/ADR-RES) was 85.3 µM (inactive), the GI50 (OVCAR-3) was > 100 µM (inactive) and the GI50 (OVCAR-4) was > 100 µM (inactive). For the same compound, the GI50 (OVCAR-5) was > 100 µM (inactive), the GI50 (OVCAR-8) was > 100 µM (inactive) and the GI50 (PC-3) was 16.1 µM (inactive). For the same compound, the GI50 (RXF 393) was 42 µM (inactive), the GI50 (SF-268) was > 100 µM (inactive) and the GI50 (SF-295) was > 100 µM (inactive). The GI50 (SF-539) was > 100 µM (inactive), the GI50 (SK-MEL-28) was > 100 µM (inactive) and the GI50 (SK-MEL-5) was 87.5 µM (inactive). For the same compound, the GI50 (SK-OV-3) was > 100 µM (inactive), the GI50 (SN12C) was 86.3 µM (inactive) and the GI50 (SNB-19) was > 100 µM (inactive). The GI50 (SNB-75) was > 100 µM (inactive), the GI50 (SR) was > 100 µM (inactive) and the GI50 (SW-620) was 56.6 µM (inactive). The GI50 (TK-10) was 52.4 µM (inactive), the GI50 (U-251) was 69.3 µM (inactive) and the GI50 (UACC-257) was > 100 µM (inactive). For the same compound, the GI50 (UACC-62) was > 100 µM (inactive) and the GI50 (UO-31) was > 100 µM (inactive).
With `COc1ccc2c3c([nH]c2c1)CCN(CCCC(=O)c1ccc(F)cc1)C3` the GI50 (786-0) was 14.1 µM (inactive), the GI50 (A498) was 16 µM (inactive) and the GI50 (A549) was 17.1 µM (inactive). The GI50 (ACHN) was 17.1 µM (inactive), the GI50 (CAKI-1) was 16 µM (inactive) and the GI50 (CCRF-CEM) was 19.8 µM (inactive). For the same compound, the GI50 (COLO 205) was 12.8 µM (inactive), the GI50 (DU-145) was 18.7 µM (inactive) and the GI50 (EKVX) was 12.8 µM (inactive). The GI50 (HCC 2998) was 5.53 µM (inactive), the GI50 (HCT-116) was 12.2 µM (inactive) and the GI50 (HCT-15) was 20.1 µM. The GI50 (HL-60) was 15 µM (inactive), the GI50 (HOP-62) was 12.2 µM (inactive) and the GI50 (HT-29) was 4.91 µM (inactive). For the same compound, the GI50 (Hs-578T) was 6.56 µM (inactive), the GI50 (IGROV-1) was 18.4 µM (inactive) and the GI50 (K562) was 16.6 µM (inactive). The GI50 (KM12) was 19.7 µM (inactive), the GI50 (LOX IMVI) was 12.7 µM (inactive) and the GI50 (M14) was 15.5 µM (inactive). For the same compound, the GI50 (MCF7) was 17.3 µM (inactive), the GI50 (MDA-MB-231) was 15.8 µM (inactive) and the GI50 (MDA-MB-435) was 17.1 µM (inactive). The GI50 (MDA-N) was 20 µM (inactive), the GI50 (MOLT-4) was 16.7 µM (inactive) and the GI50 (Malme-3M) was 13.4 µM (inactive). The GI50 (NCI-H226) was 16.5 µM (inactive), the GI50 (NCI-H23) was 19.4 µM (inactive) and the GI50 (NCI-H460) was 19.4 µM (inactive). For the same compound, the GI50 (NCI-H522) was 23.3 µM (inactive), the GI50 (NCI/ADR-RES) was 18.6 µM (inactive) and the GI50 (OVCAR-3) was 18.8 µM (inactive). For the same compound, the GI50 (OVCAR-4) was 16.8 µM (inactive), the GI50 (OVCAR-5) was 13.8 µM (inactive) and the GI50 (OVCAR-8) was 15.6 µM (inactive). The GI50 (PC-3) was 12.6 µM (inactive), the GI50 (RPMI-8226) was 16.7 µM (inactive) and the GI50 (RXF 393) was 14.2 µM (inactive). For the same compound, the GI50 (SF-268) was 16.8 µM (inactive), the GI50 (SF-295) was 15.7 µM (inactive) and the GI50 (SF-539) was 9.89 µM (inactive). The GI50 (SK-MEL-28) was 15.3 µM (inactive), the GI50 (SK-MEL-2) was 17.5 µM (inactive) and the GI50 (SK-MEL-5) was 13.2 µM (inactive). For the same compound, the GI50 (SK-OV-3) was 19.4 µM (inactive), the GI50 (SN12C) was 15.9 µM (inactive) and the GI50 (SNB-19) was 14.8 µM (inactive). The GI50 (SNB-75) was 12.2 µM (inactive), the GI50 (SR) was 18 µM (inactive) and the GI50 (SW-620) was 17 µM (inactive). For the same compound, the GI50 (T47D) was 19 µM (inactive), the GI50 (TK-10) was 15.5 µM (inactive) and the GI50 (U-251) was 17.2 µM (inactive). For the same compound, the GI50 (UACC-257) was 17.6 µM (inactive), the GI50 (UACC-62) was 13.8 µM (inactive) and the GI50 (UO-31) was 14 µM (inactive).

Source: ChEMBL document CHEMBL1201862, “PubChem BioAssay data set” (2004)
